Laboratory results as given in patent US20260256921A1, “BIFUNCTIONAL MOLECULES TO TARGET DEGRADATION OF TUMOR NECROSIS FACTOR” (Biohaven Therapeutics Ltd., priority 2023, published 2026).
pIC50, pKd: −log10 of the molar value. Like-named read-outs stand apart in the source and are kept apart here.

Legend:
human TNF-α [1] = target: T1, human TNF-α (Homo sapiens, UniProt P01375); assay: TNF-α thermal melt assay; assay type: binding; parameters: Amino acids 77-233 of Human TNF-α protein with an N-terminal GST tag; GST (N, cleaved yes); made in house; host or cells: Escherichia coli (BL21 NiCo)
Description: Protein was purified using glutathione agarose purification columns (Pierce™, Waltham, MA, USA). Following purification, the GST tag was removed using HRV3c protease (Pierce™, Waltham, MA, USA) and the GST tag and the TNF-α were separated via ion exchange chromatography using a 20 mM HEPES pH 8.0 buffer system ramping from 0 to 1 M NaCl over 12 column volumes with 5 ml of Q Sepharose (HiScreen Q HP, Cytiva™, Marlborough, MA, USA). The final protein includes the amino acids GPLGSG at the N-terminus of the protein.
Protein was heated from 20° C. to 95° C. at one degree per minute in a Roche Opus384 qPCR machine.
Target sequence in this assay (P01375 77-233): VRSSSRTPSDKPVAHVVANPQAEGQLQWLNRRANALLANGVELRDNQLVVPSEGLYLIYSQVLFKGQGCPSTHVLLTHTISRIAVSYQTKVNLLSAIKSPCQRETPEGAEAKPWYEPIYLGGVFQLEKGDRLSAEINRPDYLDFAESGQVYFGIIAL

human TNF-α [2] = target: T1, human TNF-α; assay: TNF-α functional assay (hHEK-TNF-α SEAP reporter cells); assay type: cell-based; parameters: purchased ACROBiosystems TNA-H4211
From the text: Human HEK TNF-αcells (hHEK-TNF-α cells; InvivoGen Catalog #hkb-tnfdmyd; San Diego, CA, USA) are human embryonic kidney HEK293 cells that are stably transfected with the reporter gene, secreted alkaline phosphatase (SEAP). The hHEK-TNF-α cells allow for the detection of bioactive human and murine TNF-α via the activation of the NF-kB-inducible promoter and subsequent production of SEAP. Bioactivity of commercial human TNF-α protein (ActiveMax® Human TNF-α Protein, Tag Free, Low Endotoxin; available by ACROBiosystems Catalog #TNA-H4211; Newark, DE, USA) was determined in this reporter system.
Test molecules were dissolved in 100% DMSO and serially diluted by either 3-fold serial dilution or 4-fold serial dilution. […] TNF-α protein was added at the previously determined ECso. Plates containing cells, test molecules, and cytokine were incubated overnight for 18-24 hours at 37° C., 5% CO2.
The level of SEAP in the supernatant of each well was quantified using the Quanti Blue™ Solution (InvivoGen Catalog #rep-qba2; San Diego, CA, USA), a reagent with a colorimetric change in the presence of SEAP. To perform the Quanti-Blue assay: 20 L of the sample supernatant after the overnight 18-24 hour incubation was added to 180 L of Quanti Blue™ Reagent and incubated for 45 minutes at 37° C. […] Inhibition of TNF-α signaling was calculated utilizing GraphPad Prism (San Diego, CA, USA).
Target sequence in this assay (P01375 77-233 limits assumed): as the sequence (P01375 77-233) above

[3] = thermal melt, SYPRO Orange, Kd calculated as in Matulis et al., read-out: TM Kd
[4] = hHEK-TNF-α cells, SEAP readout, TNF-α added at EC80 (1.034 pM), 18-24 hours, read-out: TNF-α Function IC50

Row | SMILES | pKd (human TNF-α [1]; [3]) | pIC50 (human TNF-α [2]; [4]) | pKd (human TNF-α [1]) | pIC50 (human TNF-α [2])
1 | CC(C)(C)OC(=O)CCOCCOCCOCCOCCOCCOCCC(=O)N1CCN(Cc2ccc(-c3c[nH]c4ccncc34)c(OCCc3ccc(-c4cccc5ccncc45)cc3)c2)CC1 [Intermediate 18] | – | 6.09 | – | –
2 | O=C(O)CCOCCOCCOCCOCCOCCOCCC(=O)N1CCN(Cc2ccc(-c3c[nH]c4ccncc34)c(OCCc3ccc(-c4cccc5ccncc45)cc3)c2)CC1 [Intermediate 19] | – | 6.43 | – | –
3 | CC(C)(C)OC(=O)CCOCCOCCOCCOCCOCCOCCOCCOCCC(=O)N1CCN(Cc2ccc(-c3c[nH]c4ccncc34)c(OCCc3ccc(-c4cccc5ccncc45)cc3)c2)CC1 [Intermediate 3] | 6.92 | 6.00 | – | –

Second part, the compound after the results:

Row | pKd (human TNF-α [1]; [3]) | pIC50 (human TNF-α [2]; [4]) | pKd (human TNF-α [1]) | pIC50 (human TNF-α [2]) | SMILES
4 | 7.16 | 6.64 | – | – | O=C(O)CCOCCOCCOCCOCCOCCOCCOCCOCCC(=O)N1CCN(Cc2ccc(-c3c[nH]c4ccncc34)c(OCCc3ccc(-c4cccc5ccncc45)cc3)c2)CC1 [Intermediate 4]
5 | – | – | > 9.00 | 6.62 | CN1CCN(Cc2ccc(-c3c[nH]c4ccncc34)c(OCCc3ccc(-c4cccc5ccncc45)cc3)c2)CC1 [Intermediate 25]
6 | 6.66 | 6.61 | – | – | O=C(O)CCOCCOCCC(=O)N1CCN(Cc2ccc(-c3c[nH]c4ccncc34)c(OCCc3ccc(-c4cccc5ccncc45)cc3)c2)CC1 [Intermediate 24]
7 | 7.51 | 6.47 | – | – | CC(C)(C)OC(=O)CCOCCOCCC(=O)N1CCN(Cc2ccc(-c3c[nH]c4ccncc34)c(OCCc3ccc(-c4cccc5ccncc45)cc3)c2)CC1 [Intermediate 23]
